The source made the active and inactive calls.
Legend:
fMet-Leu-Phe receptor = fMet-Leu-Phe receptor (Homo sapiens, UniProt P21462); experiment: FPR ligands, dose response (AID 519); assay type: functional
[1] = biological target: Disintegrin and metalloproteinase domain-containing protein 17 (Homo sapiens, UniProt P78536); experiment: exosite inhibitors of ADAM17, dose response, biochemical (AID 743260)
[2] = ADAM10 protease inhibitors, dose response, selectivity assay for ADAM17 exosite inhibitor project, biochemical, FRET peptide substrate, recombinant human ADAM10 (AID 743259);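 note: ADAM10 enzyme cleaving a FRET peptide substrate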
[3] = A549 cell cytotoxicity, dose response, cytotoxicity control, plate reader, cherry-pick, antagonist series (AID 743412); assay type: functional, cell-based
[4] = HEK293 cell cytotoxicity, dose response, cytotoxicity control, plate reader, cherry-picked samples (AID 743446); assay type: functional, cell-based
[5] = human group III sPLA2 inhibitors, dose response, biochemical, QFRET, IC50 (AID 743457);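 note: green fluorescence rise as the enzyme cleaves BODIPY PC-A2 in liposomes; potency for inhibition of the enzyme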
Kallikrein-7 = Kallikrein-7 (Homo sapiens, UniProt P49862); experiment: Fluorescence Intensity-based biochemical primary high throughput dose response assay to identify activators of kallikrein-7 (K7) zymogen.
[6] = biological target: Mitogen-activated protein kinase 10 (Homo sapiens, UniProt P53779); experiment: Dose response biochemical screening assay for inhibitors of c-Jun N-Terminal Kinase 3 (JNK3). [Related pubchem assays: 746 ]
Major prion protein = Major prion protein (Homo sapiens, UniProt P04156); assay type: functional, cell-based
cells [7] = experiment: cells
[8] = Luminescence-based cell-based high throughput dose response assay to identify activators of the DAF-12 from the parasite S. stercoralis (ssDAF-12).; assay type: functional
[9] = P. falciparum late gametocyte killing, dose response, luminescence (AID 1117278); assay type: functional, cell-based;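 note: gametocytes exposed to compound for 24 hours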
[10] = biological target: T1, Oxysterols receptor LXR-beta (Homo sapiens, UniProt P55055); experiment: LXR agonists, Gal4 luciferase reporter, dose response, counter-screen for ssDAF-12 agonist project, cell-based, luminescence, HEK293, S. stercoralis campaign (AID 720737); assay type: functional; conditions: read-out: IC50 (the source's name)
T1 sequence (P55055 whole entry): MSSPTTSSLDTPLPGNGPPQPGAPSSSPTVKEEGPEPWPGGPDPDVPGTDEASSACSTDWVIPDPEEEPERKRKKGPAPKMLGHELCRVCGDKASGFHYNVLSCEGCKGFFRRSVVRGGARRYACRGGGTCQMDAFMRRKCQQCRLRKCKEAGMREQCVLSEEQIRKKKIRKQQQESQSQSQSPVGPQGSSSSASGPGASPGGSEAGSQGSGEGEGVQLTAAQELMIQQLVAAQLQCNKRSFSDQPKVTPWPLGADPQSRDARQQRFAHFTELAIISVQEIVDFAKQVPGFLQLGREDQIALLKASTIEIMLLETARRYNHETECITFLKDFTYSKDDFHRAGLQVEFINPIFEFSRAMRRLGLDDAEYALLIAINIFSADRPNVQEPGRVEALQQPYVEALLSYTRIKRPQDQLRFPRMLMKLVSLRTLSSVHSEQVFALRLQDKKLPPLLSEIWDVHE

[11] = Jurkat T cell cytotoxicity, dose response, cytotoxicity control for P. falciparum gametocyte viability project, luminescence (AID 1117277); assay type: functional, cell-based;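 note: potency reflects loss of cellular ATP meaning fewer viable cells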
[12] = biological target: Peroxisome proliferator-activated receptor gamma/Nuclear receptor coactivator 3 (Homo sapiens, UniProt P37231); experiment: TR-FRET dose response biochemical High Throughput Screening assay for agonists of the steroid receptor coactivator 3 (SRC-3) recruitment by the peroxisome proliferator-activated receptor gamma (PPAR gamma): non-selective agonists. [Related pubchem assays: 1301 (Confirmation screen.), 1048 (Primary screen.)]; assay type: functional
[13] = biological target: Peroxisome proliferator-activated receptor gamma/Nuclear receptor coactivator 2 (Homo sapiens, UniProt P37231); experiment: (§1) TR-FRET dose response biochemical High Throughput Screening assay for agonists of the steroid receptor coactivator 2 (SRC-2) recruitment by the peroxisome proliferator-activated receptor gamma (PPAR gamma): non-selective agonists. [Related pubchem assays: 1297, 1032 ]; assay type: functional
[14] = biological target: Peroxisome proliferator-activated receptor gamma/Nuclear receptor coactivator 1 (Homo sapiens, UniProt P37231); experiment: as §1, with “1 (SRC-1)” for “2 (SRC-2)”, “assays (depositor defined):AID1300, AID1808, AID504735, AID631]” for “assays: 1297, 1032 ]”; assay type: protein assay
cells [15] = conditions: A549
[16] = biological target: T2, Corticotropin-releasing factor receptor 2/Corticotropin-releasing factor-binding protein (Homo sapiens, UniProt P24387+Q13324); experiment: Dose Response confirmation of uHTS hits for small molecule antagonists of the CRF-binding protein and CRF-R2 receptor complex.; assay type: functional; conditions: read-out: IC50_Mean
T2 sequence (Q13324 whole entry): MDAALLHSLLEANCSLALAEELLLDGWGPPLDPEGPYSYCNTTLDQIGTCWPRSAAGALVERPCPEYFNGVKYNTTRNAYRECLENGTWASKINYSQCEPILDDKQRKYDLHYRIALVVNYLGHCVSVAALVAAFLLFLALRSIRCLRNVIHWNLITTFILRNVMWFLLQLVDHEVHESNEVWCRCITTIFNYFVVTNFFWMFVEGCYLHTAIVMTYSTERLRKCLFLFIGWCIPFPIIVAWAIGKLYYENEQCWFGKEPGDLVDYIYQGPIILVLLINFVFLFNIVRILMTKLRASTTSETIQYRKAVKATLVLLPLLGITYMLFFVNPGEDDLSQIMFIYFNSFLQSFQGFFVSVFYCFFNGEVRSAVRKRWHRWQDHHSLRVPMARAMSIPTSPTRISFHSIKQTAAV
T2 sequence (P24387 whole entry): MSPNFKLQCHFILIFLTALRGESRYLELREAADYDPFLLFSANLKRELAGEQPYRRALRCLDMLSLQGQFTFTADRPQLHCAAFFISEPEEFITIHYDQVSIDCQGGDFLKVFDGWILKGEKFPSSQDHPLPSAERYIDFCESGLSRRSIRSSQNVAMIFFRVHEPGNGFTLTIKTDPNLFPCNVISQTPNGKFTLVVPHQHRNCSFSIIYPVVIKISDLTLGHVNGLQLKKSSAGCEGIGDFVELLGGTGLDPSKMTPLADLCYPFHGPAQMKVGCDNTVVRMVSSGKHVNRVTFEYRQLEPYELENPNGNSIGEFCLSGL

[17] = biological target: T2, Corticotropin-releasing factor receptor 2/Corticotropin-releasing factor-binding protein; experiment: activators of CRF receptor 2 with binding protein – uHTS hits, confirmation (AID 602473); assay type: functional; conditions: read-out: EC50_Mean

## COCCCN1C(=O)C(O)=C(C(=O)c2ccco2)C1c1cccc(Br)c1 (stereo unspecified)
fMet-Leu-Phe receptor
  Ki: 31.2 µM (inactive)

## CC(=O)n1cc([C@@H]2C=C(C(=O)Nc3ccccc3)O[C@H](OCc3ccc(CO)cc3)C2)c2ccccc21
[1]
  IC50: > 69.5 µM (inactive)
[2]
  IC50: > 69.5 µM (inactive)

## O=c1cc(-c2c(F)c(F)c(F)c(F)c2F)oc2ccccc12
[3]
  AC50: 17.4 µM (active)
[4]
  AC50: 37.5 µM (active)

## CCOc1ccc(-n2c(N)c(-c3nc4ccccc4[nH]3)sc2=S)cc1
[5]
  IC50: > 122 µM (inactive)

## Nc1ccc(Cl)cc1C(=O)OCC(=O)NC1CCS(=O)(=O)C1 (stereo unspecified)
Kallikrein-7
  EC50: > 7.72 µM (active)

## Cc1cc(N2C(=O)C(O)=C(C(=O)c3ccc(F)cc3)C2c2cccc(Br)c2)no1 (stereo unspecified)
fMet-Leu-Phe receptor
  Ki: > 66.7 µM (inactive)

## N#Cc1c(O)nc(SCc2ccc(F)cc2)nc1-c1ccco1
[6]
  IC50: 13.6 µM (not active)
Major prion protein
  IC50: 1.02 µM (active)
Cells [7]
  IC50: > 138 µM (inactive)

## O=C(NCCc1c[nH]c2ccccc12)c1cnccn1
[8]
  IC50: > 67.5 µM (inactive)
[9]
  IC50: > 109 µM (inactive)
[10]
  EC50: > 67.5 µM (inactive)
[11]
  IC50: > 83.3 µM (inactive)

## Cc1ccccc1-c1nnc(S)o1
[12]
  EC50: > 79.4 µM (not active)
[6]
  IC50: 55.5 µM (not active)
[13]
  EC50: 9.69 µM (active)
Major prion protein
  IC50: 5.75 µM (active)
[14]
  EC50: 71.9 µM (inactive)
Cells [7]
  IC50: > 138 µM (inactive)

## COc1cc(C2C3=C(CC(C)(C)CC3=O)N(C)C3=C2C(=O)CC(C)(C)C3)cc(Br)c1O
Cells [15]
  AC50: > 52 µM (inactive)

## CCCc1n[nH]c(SCc2ccc(Cl)cc2Cl)n1
[16]
  IC50: > 47.1 µM (inactive)
[17]
  EC50: > 53 µM (inactive)
[9]
  IC50: > 109 µM (inactive)
[11]
  IC50: > 83.3 µM (inactive)

Source: ChEMBL document CHEMBL1201862, “PubChem BioAssay data set” (2004)
